According to US20090105189A1, “METHODS AND COMPOSITIONS FOR AMELIORATING OR INHIBITING DECLINE IN MEMORY OR INTELLIGENCE OR IMPROVING SAME” (priority 2006, published 2009):

Experiments:
Sprague Dawley rats [1] = assay: Visible platform water maze task in EC and IC rats on UMP diet; type: in vivo, rat; details: UMP-supplemented diet
Description: Four starting positions (north, south, east, west) were spaced around the perimeter of the tank, dividing the pool into four equal quadrants. For the visible platform version of the water maze, a white rubber ball (8 cm in diameter) was attached to the top of the submerged platform and protruded above the water surface. The platform could be used as a step to mount the ball to escape the water. A video camera was mounted directly above the water maze; this camera was linked to a computer with video tracking software to automatically record the escape latency (time to reach the platform), distance traveled (length of swim path taken to find the platform), and swim speed (HVS Image Ltd; Buckingham, UK). One week after completion of the 4-day/4 trials per day spatial training task, the rats from the above Example received 4 training sessions consisting of 4 trials (i.e., swims) per day. On each trial the animal was placed into the tank facing the wall at one of four designated start points (N, S, E, and W) and allowed to escape onto the visibly cued platform. A different starting point was used on each trial such that each starting point was used each day. In addition, the visible escape platform was placed in a different quadrant on each trial such that each of the four quadrants contained the escape platform once each day. […]

[2] = Body weight of rats on UMP-supplemented diet; type: in vivo, rat
Description: Animals were weighed weekly to ensure that UMP-treated and untreated rats were eating equivalent amounts of food. […] Also, there was no difference in body weight between the EC and IC groups.

[3] = Plasma uridine levels after oral UMP in healthy human subjects; type: in vivo; details: humans, oral UMP 500, 1000 or 2000 mg; baseline and 1, 2, 4, 8 hr
Protocol: 1-milliliter (mL) samples of heparinized plasma were spiked with 1 μg fluoro-uridine for use as an internal standard, then deproteinized by adding methanol (5 mL).
All steps were performed at 4° C. Boronate affinity columns (Affigel-601, Bio-Rad) were primed with two 5-mL ammonium acetate washes, samples were applied, and columns were washed again with ammonium acetate, after which the nucleosides were eluted with 0.1 N formic acid (7 mL). Eluates were lyophilized, then reconstituted in 100 μL water for HPLC analysis.
HPLC analysis was performed using a Beckman System Gold apparatus (Beckman Instruments) equipped with a Rainin Dynamax Microsorb C18 column (3 μm packing; 4.6×100 mm) at room temperature. The standard HPLC method is described in Lopez-Coviella et al, (J. Neurochem 65: 889-894, 1995). For modified HPLC, an isocratic elution buffer was used containing 0.004 N potassium phosphate buffer (pH 5.8) and 0.1% methanol instead of formic acid, flowing at 1 mL/min and heated to 35°.
Eight healthy subjects (5 male, 3 female, 27-67 years old) were instructed to fast overnight and given sequentially increasing doses (500, 1000, and 2000 mg) of disodium UMP (Numico, Wageningen, NL) at 7-8 AM on each of three days, separated by at least a three-day washout period. All subjects were given lunch. Blood samples were drawn over an eight-hour period into heparinized tubes. […]

Fischer 344 rats = assay: In vivo microdialysis of striatal neurotransmitter release in aged rats on UMP diet; set-up: species or system rat; details: for K+-evoked striatal DA release (basal = 100%): control 283±9%
gerbils [4] = assay: Working memory and reference memory assay (modified radial arm maze) in gerbils; type: in vivo, gerbil; details: 0.1% UMP diet, four weeks
Description: Groups of ten gerbils fed control or 0.1% UMP diet for four weeks and trained to successfully find all of the food pellets as described above were then given a modified test, in which only two arms of the maze (but always the same two) contained food pellet rewards. In this test, a working memory error is one in which a gerbil revisits an arm from which it has already taken the pellet that day.

Aging rats = assay: Morris water maze in aging rats on UMP diet; type: in vivo, rat; details: aging rats 18 months, 2.5% diet, six weeks
Description: Aging rats (I 8 months, 500 g) were fed a control diet or a diet containing 2.5% UMP diets for six weeks. They were then shown a hidden platform in a six-foot diameter pool of water, placed somewhere in each of the four quadrants of the pool in turn, and were allowed 90 seconds in each trial to attempt to relocate the platform by swimming, and the swimming time “mean escape latency” recorded. The set of four trials was repeated on each of four consecutive days. The platform was in the same place each day. This test, known as the Morris water maze, is an indicator of spatial memory.

gerbils [5] = assay: Food pellet learning assay (radial arm maze) in gerbils; type: in vivo, gerbil; details: young adult gerbils, 0.1, 0.5 or 2.5% UMP chow, three weeks
Protocol: Male young adult gerbils fed control or UMP-containing chow (0, 0.1, 0.5 or 2.5%) ad lib for three weeks were tested in a radial arm maze, consisting of a central chamber with four branches primed with a small food pellet at the end of each. Before testing, animals were fasted overnight; each animal was then placed in the central chamber and allowed up to 180 seconds to find all of the pellets. A shorter time required to find the pellets is indicative of improved learning and spatial memory.

Sprague Dawley rats [6] = assay: Hidden platform water maze and probe test in EC and IC rats on UMP diet; type: in vivo, rat; details: for Rate of acquisition of hidden platform water maze task: 0.1% UMP-2Na+ diet 3 months
Protocol: (§1) Behavioral training was carried out between 10:00 AM-2:00 PM, in a blinded manner. Rats received a 4-d training session consisting of 4 trials (i.e., swims) per day to locate the hidden platform (1.5 cm below the water surface), which remained in the same position across trials for individual animals (i.e. within one of 4 quadrants). On each trial the animal was placed into the tank facing the wall at one of 4 designated start points (N, S, E, and W) and allowed to escape onto the hidden platform. A different starting point was used on each trial such that each starting point was used once each day. […] After mounting the platform, rats remained on the platform for 20 seconds. Following each trial, animals were removed from the maze and placed in a holding cage for a 30 second inter-trial interval (ITI). The latency to mount the escape platform was used as a measure of task acquisition.
(§2) On day 5, the rats were given a probe test. For this, the platform was removed and the swim path and time spent searching in the quadrant of the pool that previously contained the platform were measured over 60 s. This provides a measurement for the retention of spatial memory and indicates whether a spatial strategy was used during hidden platform training.

[7] = Brain CDP-choline levels after oral UMP in gerbils; type: in vivo, gerbil; details: UMP 1 mmole/kg by gavage, for 30 min after administration
Protocol: Brain tissue or cells was dissolved in methanol/chloroform (1:2 vol/vol), centrifuged, and the aqueous phase was dried under vacuum, resuspended in 100-200 μL water and separated by HPLC on an ion-exchange column (Alltech Hypersil APS-2, 5 μM, 250×4.6 mm). CDP-choline was eluted with a linear gradient of NaH2PO4 buffers A (1.75 mM NaH2PO4, pH 2.9) and B (500 mM, pH 4.5), which allowed resolution of CDP-choline from closely co-eluting substances such as UMP over 40 min. The retention time for CDP-choline was 9.5 min. Individual nucleotide peaks were detected by UV absorption at […], and were identified by comparison with the positions of authentic standards, as well as by the addition of nucleotide standards to selected samples.

rats [8] = details: IC rats
Protocol: as §1, §2
(§3) Animals were maintained as described for Example 13. For the first experiment (FIGS. 24-26), male pups were removed at postnatal d 23, separated into small groups, and allowed to acclimatize for 1 week. Pups were assigned to either the […] or IC condition; rats were matched according to body weight at PN day 23. […] Thus rats were fed the diets and were enriched or impoverished from 30-120 d of age.
For the second experiment, 4 groups of IC rats were utilized, as depicted below:
Four diets were prepared containing different amounts of CDP-choline. Mean weekly intakes were monitored for all rats, and the diets were adjusted so that rats would receive 500 mg/kg/d.
(§4) The water maze was a black circular tank 1.83 m in diameter and 0.55 m in height, filled with water (25 C) to a depth of 20 cm and located in a room containing several extramaze cues. Four starting positions (N, S, E, and W) were spaced around its perimeter, dividing the pool into 4 equal quadrants. The rectangular clear Plexiglas escape platform used for the spatial task (11×14×19 cm) was submerged at a depth of […]. For the cured version of the water maze, a white rubber ball 8 cm in diameter attached to the top of the submerged platform protruded above the water surface. The platform could be used as a step to mount the ball to escape from the water.

rats [9] = details: EC and IC rats, choline-supplemented vs control diet
Description: as §3, §4

[10] = aged rats, UMP diet 1 week or 6 weeks vs control
[11] = 500 mg/kg/d for 3 mo, 4 d of training

With `O=c1ccn([C@@H]2O[C@H](COP(=O)([O-])[O-])[C@@H](O)[C@H]2O)c(=O)[nH]1.[Na+].[Na+]` [UMP, uridine-5′-monophosphate disodium] the “Striatal-based (stimulus-response) memory, visible platform water maze” value (Sprague Dawley rats [1]) was “little or no effect”, the Mean body weights ([2]; Sprague Dawley EC/IC rats, 0.1% UMP-2Na+ diet, vs control groups) was “No significant differences in mean body weights” and the Body weight ([2]; aged Fischer 344 rats, 2.5% UMP-2Na+ diet, 0-6 weeks) was “neither UMP-diet (vs. control) nor UMP×time interaction affected body weight”. For the same compound, the Plasma uridine levels [3] was “increased in response to oral UMP in a dose-dependent fashion”, the “Basal DA levels in striatal dialysate” value (Fischer 344 rats; aged rats, 2.5% UMP diet 1 or 6 weeks vs control) was “did not affect” and the “K+-evoked striatal DA release (basal = 100%)” value (Fischer 344 rats; aged rats, 2.5% UMP diet 1 week, not significant) was 316±15%. The “K+-evoked striatal DA release (basal = 100%)” value (Fischer 344 rats; aged rats, 2.5% UMP diet 6 weeks) was 341±21%, the “Basal DOPAC levels in striatal dialysate” value (Fischer 344 rats; [10]) was “no effects” and the “Basal HVA levels in striatal dialysate” value (Fischer 344 rats; [10]) was “no effects”. The “Basal release of acetylcholine in corpus striatum” value (Fischer 344 rats; rats, dietary UMP) was “increase the basal release”, the Reference memory errors (gerbils [4]) was “reduced numbers” and the Working memory errors (gerbils [4]) was “reduced numbers”. For the same compound, the “Time required to reach the platform (mean escape latency), Morris water maze” value (Aging rats) was “statistically significant reduction in the time required to reach the location of the platform”, the “Time required to find the food pellets, radial arm maze” value (gerbils [5]) was “reduced the time required for gerbils to find the pellet in a dose-dependent manner” and the “Rate of acquisition of hidden platform water maze task” value (Sprague Dawley rats [6]; EC rats, vs EC-CONT (P<0.09)) was “acquired the task at a faster rate than EC-CONT rats”. The “Rate of acquisition of hidden platform water maze task” value (Sprague Dawley rats [6]; IC rats, vs IC-CONT) was “acquired the task at a significantly faster rate than did IC-CONT rats”, the “Time in the correct quadrant, 60 s probe test” value (Sprague Dawley rats [6]; IC rats, UMP diet, vs IC-CONT) was “spent significantly more time in the correct quadrant than IC-CONT rats” and the “Brain CDP-choline levels” value [7] was “rose significantly in a linear fashion”.

For cytidine-diphosphocholine, the “Escape latencies of initial trials on last 3 d of spatial training” value (rats [8]; 500 mg/kg/d for 3 mo) was “restored normal behavior”, the “Swim time in target quadrant, 60-sec probe test” value (rats [8]; 500 mg/kg/d for 3 mo) was “restored normal behavior” and the “Distance traveled to find the hidden platform” value (rats [8]; [11]) was “restored normal behavior”. For the same compound, the “Escape latencies, hidden platform task” value (rats [8]; [11]) was “exhibited normal latencies”, the “Escape latencies, hidden platform task (second experiment)” value (rats [8]; high-choline diet for 3 mon vs untreated IC rats) was “different significantly from untreated IC rats” and the “Swim time in target quadrant, 60-sec probe test (second experiment)” value (rats [8]; high-choline diets for 3 mon) was “swam for a significantly longer time in the target quadrant”. For the same compound, the “Escape latencies, visible platform task” value (rats [9]) was “No main effects of diet”.
